Data as given in patent US11203591B2, “Substituted 6-azabenzimidazole compounds” (Gilead Sciences, Inc., priority 2018, dated 2021).

Target: human HPK1 (MAP4K1) (Homo sapiens (Human), UniProt Q92918)
Assay: HPK1 IC50 Assay (TR-FRET peptide phosphorylation)
Format: biochemical
Details: 0.15 nM HPK1, 10 μM ATP, 1 μM STK S1 peptide substrate; geometric mean
Protocol: The enzymatic activity of human HPK1 (MAP4K1) was monitored in a biochemical assay in the presence or absence of compounds and using a synthetic peptide substrate. An increase in phosphorylation of the peptide by HPK1 was indicative of its kinase activity.
Recombinant HPK1 kinase domain produced via baculovirus infection of insect cells was obtained from Proteros (Proteros Biostructures #PR-0322) and was pre-activated in the presence of 2 mM ATP (Sigma-Aldrich, cat #GE27-2056-01) and 2 mM magnesium chloride for 16 hours at 4° C. The protein reaction mixture was then loaded to a desalting column (Thermo Fisher Scientific, Cat #89889) to remove excess ATP. HPK1 was eluted with buffer containing 20 mM Tris (2-Amino-2-(hydroxymethyl)propane-1,3-diol) pH 8.0, 150 mM NaCl, 2 mM dithiothreitol and 5% glycerol, and was frozen at −80° C. for later use. HPK1 dual phosphorylation was confirmed by mass spectrometry.
Ten nanoliters of test compounds dissolved in DMSO at various concentrations were dispensed into a 384-well ProxiPlate (PerkinElmer #6008289). Five microliters of a solution of recombinant HPK1 diluted in HPK1 kinase assay buffer (50 mM BES [N,N-Bis(2-hydroxyethyl)-2-aminoethanesulfonic acid], pH 7.0; 10 mM magnesium chloride; 0.01% Triton X-100; 1 mM dithiothreitol; 0.01% bovine serum albumin; 0.1 mM sodium orthovanadate) was added to the compound-containing plate and was incubated for 15 minutes at 25° C. Five microliters of a mixture of ATP (Sigma-Aldrich #A6559) and peptide substrate STK S1 (Cisbio #61ST1BLC) diluted in HPK1 kinase assay buffer was then added to start the reaction. Final concentrations were 0.15 nM for HPK1, 10 μM for ATP, and 1 μM for the STK S1 peptide substrate. The reaction mixture was incubated at 25° C. for 3 hours and was stopped with the addition of 10 μl of an EDTA (Ethylenediaminetetraacetic acid)-containing detection buffer (Cisbio #62SDBRDF) supplemented with Europium cryptate-labeled anti-phospho-serine/threonine antibodies (Cisbio #62ST1PEJ) and XL665-labeled streptavidin (Cisbio #610SAXLG). The mixture was incubated for 16 hours at room temperature and peptide phosphorylation was measured by time-resolved fluorescence energy transfer (665 nm/620 nm) on an Envision plate reader (PerkinElmer).
Data in Table 1 were normalized based on positive (staurosporine) and negative (DMSO) controls. Least squares curve fittings were performed using a four-parameter variable slope nonlinear regression model. IC50 is defined as the concentration of compound required to inhibit 50% of maximum phosphorylation. IC50 values from multiple experiments were averaged by geometric mean and the standard deviation was calculated.

Sequence of human HPK1 (MAP4K1) (Q92918 17-274): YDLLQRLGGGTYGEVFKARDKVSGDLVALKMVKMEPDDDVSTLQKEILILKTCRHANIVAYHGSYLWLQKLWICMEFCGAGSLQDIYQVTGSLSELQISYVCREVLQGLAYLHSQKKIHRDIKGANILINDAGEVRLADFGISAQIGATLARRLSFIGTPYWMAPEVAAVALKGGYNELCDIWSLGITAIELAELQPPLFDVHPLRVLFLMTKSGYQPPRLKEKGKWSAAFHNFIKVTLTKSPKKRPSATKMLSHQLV

Row | IC50 | Structure (SMILES)
1 | 0.1 nM | CCNC(=O)c1cc(Nc2nc(-c3cnc4c(c3)N([C@H]3C[C@@](C)(N5CCCC6(CC6)C5)C3)C(=O)C4(C)C)cc3ncn(C(C)C)c23)c(F)c(F)c1C [Example 285, 5-((6-(3,3-dimethyl-1-((1s,3s)-3-methyl-3-(5-azaspiro[2.5]octan-5-yl)cyclobutyl)-2-oxo-2,3-dihydro-1H-pyrrolo[3,2-b]pyridin-6-yl)-3-isopropyl-3H-imidazo[4,5-c]pyridin-4-yl)amino)-N-ethyl-3,4-difluoro-2-methylbenzamide]
2 | 0.09 nM | CC(C)n1cnc2cc(-c3cc4c(nc3F)C(C)(C)C(=O)N4[C@H]3C[C@@](C)(N4CCCCC4)C3)nc(Nc3cc(C(=O)NCC(F)F)c(Cl)c(F)c3F)c21 [Example 272, 2-chloro-N-(2,2-difluoroethyl)-3,4-difluoro-5-((6-(5-fluoro-3,3-dimethyl-1-((1s,3s)-3-methyl-3-(piperidin-1-yl)cyclobutyl)-2-oxo-2,3-dihydro-1H-pyrrolo[3,2-b]pyridin-6-yl)-3-isopropyl-3H-imidazo[4,5-c]pyridin-4-yl)amino)benzamide]
3 | 0.1 nM | CCNC(=O)c1cc(Nc2nc(-c3cc4c(nc3F)C(C)(C)C(=O)N4[C@H]3C[C@@](C)(N4CCCC5(CC5)C4)C3)cc3ncn(C(C)C)c23)c(F)c(F)c1Cl [Example 270, 2-chloro-N-ethyl-3,4-difluoro-5-((6-(5-fluoro-3,3-dimethyl-1-((1s,3s)-3-methyl-3-(5-azaspiro[2.5]octan-5-yl)cyclobutyl)-2-oxo-2,3-dihydro-1H-pyrrolo[3,2-b]pyridin-6-yl)-3-isopropyl-3H-imidazo[4,5-c]pyridin-4-yl)amino)benzamide]

Same assay, conditions: recombinant HPK1 kinase domain 0.15 nM, 10 μM ATP, 1 μM STK S1 peptide; geometric mean of multiple experiments

Row | Structure (SMILES) | IC50
4 | CCn1cnc2cc(-c3ccc4c(c3)N([C@H]3C[C@@H](NC(=O)C(C)(C)C)C3)C(=O)C4(C)C)nc(Nc3ccc(C)c(C(N)=O)c3)c21 [Example 133] | 0.9 nM
5 | CC(C)NC(=O)c1cc(Nc2nc(-c3ccc4c(c3)N([C@H]3C[C@@H](N5CCCCC5)C3)C(=O)C4(C)C)cc3ncn(C(C)C)c23)c(F)cc1Cl [Example 117] | 0.2 nM
6 | CNC(=O)c1ccc(F)c(Nc2nc(-c3ccc4c(c3)N([C@H]3C[C@@H](N5CCCCC5)C3)C(=O)C43CCN(C(C)=O)CC3)cc3ncn(C4CC4)c23)c1 [Example 97] | 0.4 nM
7 | CNC(=O)c1cc(Nc2nc(-c3ccc4c(c3)N([C@H]3C[C@@H](N5CCCCC5)C3)CC4(C)C)cc3ncn(C(C)C)c23)ccc1C [Example 57] | 0.2 nM
8 | CC(C)n1cnc2cc(-c3cnc4c(c3)N([C@H]3C[C@@](C)(N5CCC6CC6C5)C3)C(=O)C4(C)C)nc(Nc3cc(C(=O)NC4(CF)CC4)c(Cl)c(F)c3F)c21 (stereo partly shown) [Example 227, 5-((6-(1-((1s,3s)-3-(3-Azabicyclo[4.1.0]heptan-3-yl)-3-methylcyclobutyl)-3,3-dimethyl-2-oxo-2,3-dihydro-1H-pyrrolo[3,2-b]pyridin-6-yl)-3-isopropyl-3H-imidazo[4,5-c]pyridin-4-yl)amino)-2-chloro-3,4-difluoro-N-(1-(fluoromethyl)cyclopropyl)benzamide] | 0.1 nM
9 | Cc1ccc(Nc2nc(-c3ccc4c(c3)N([C@H]3C[C@@H](N5CCCCC5)C3)C(=O)C4(C)C)cc3ncn(C(C)C)c23)cc1C(=O)N[C@H](C)C(F)F [Example 21B, N-(1,1-difluoropropan-2-yl)-5-((6-(3,3-dimethyl-2-oxo-1-((1s,3s)-3-(piperidin-1-yl)cyclobutyl)indolin-6-yl)-3-isopropyl-3H-imidazo[4,5-c]pyridin-4-yl)amino)-2-methylbenzamide] | 0.07 nM
10 | Cc1c(C(=O)NC2(C(F)F)CC2)cc(Nc2nc(-c3cnc4c(c3)N([C@H]3C[C@@](C)(N5CC6CCC5CO6)C3)C(=O)C4(C)C)cc3ncn(C(C)C)c23)c(F)c1F (stereo partly shown) [Example 224, 5-((6-(1-((1s,3s)-3-(2-oxa-5-azabicyclo[2.2.2]octan-5-yl)-3-methylcyclobutyl)-3,3-dimethyl-2-oxo-2,3-dihydro-1H-pyrrolo[3,2-b]pyridin-6-yl)-3-isopropyl-3H-imidazo[4,5-c]pyridin-4-yl)amino)-N-(1-(difluoromethyl)cyclopropyl)-3,4-difluoro-2-methylbenzamide] | 0.06 nM
11 | Cc1ccc(Nc2nc(-c3ccc4c(c3)N([C@H]3C[C@@](C)(N5CCCCC5)C3)C(=O)C4(C)C)cc3ncn(C4CC4)c23)cc1C(N)=O [Example 183, 5-((3-cyclopropyl-6-(3,3-dimethyl-1-((1s,3s)-3-methyl-3-(piperidin-1-yl)cyclobutyl)-2-oxoindolin-6-yl)-3H-imidazo[4,5-c]pyridin-4-yl)amino)-2-methylbenzamide] | 0.05 nM

The remaining lines, values ahead:

Row | IC50 | Structure (SMILES)
12 | 0.9 nM | Cc1ccc(Nc2nc(-c3ccc4c(c3)N([C@H]3C[C@@H](N5CCCCC5)C3)C(=O)C4(F)F)cc3ncn(C4CC4)c23)cc1C(N)=O [Example 184]
13 | 0.07 nM | Cc1ccc(Nc2nc(-c3ccc4c(c3)N([C@H]3C[C@@H](N5CCCCC5)C3)C(=O)C4(C)C)cc3ncn(C(C)C)c23)cc1C(=O)N[C@@H](C)C(F)F [Example 21A, N-(1,1-difluoropropan-2-yl)-5-((6-(3,3-dimethyl-2-oxo-1-((1s,3s)-3-(piperidin-1-yl)cyclobutyl)indolin-6-yl)-3-isopropyl-3H-imidazo[4,5-c]pyridin-4-yl)amino)-2-methylbenzamide]
14 | 0.07 nM | Cc1c(C(=O)NC2(CF)CC2)cc(Nc2nc(-c3cnc4c(c3)N([C@H]3C[C@@](C)(N5CCCCC5)C3)C(=O)C4(C)C)cc3ncn(C(C)C)c23)c(F)c1F [Example 186, 5-((6-(3,3-Dimethyl-1-((1s,3s)-3-methyl-3-(piperidin-1-yl)cyclobutyl)-2-oxo-2,3-dihydro-1H-pyrrolo[3,2-b]pyridin-6-yl)-3-isopropyl-3H-imidazo[4,5-c]pyridin-4-yl)amino)-3,4-difluoro-N-(1-(fluoromethyl)cyclopropyl)-2-methylbenzamide]
15 | 0.1 nM | Cc1cc(F)c(Nc2nc(-c3cnc4c(c3)N([C@H]3C[C@@](C)(N5CCOCC5)C3)C(=O)C4(C)C)cc3ncn(C(C)C)c23)cc1C(=O)NC1(C(F)F)CC1 [Example 215, N-(1-(Difluoromethyl)cyclopropyl)-5-((6-(3,3-dimethyl-1-((1s,3s)-3-methyl-3-morpholinocyclobutyl)-2-oxo-2,3-dihydro-1H-pyrrolo[3,2-b]pyridin-6-yl)-3-isopropyl-3H-imidazo[4,5-c]pyridin-4-yl)amino)-4-fluoro-2-methylbenzamide]
16 | 0.09 nM | CNC(=O)c1cc(Nc2nc(-c3ccc4c(c3)N([C@H]3C[C@@H](N5CCCCC5)C3)C(=O)C43CCN(C(=O)C(C)(C)C)CC3)cc3ncn(C4CC4)c23)ccc1C [Example 98]
17 | 0.2 nM | CNC(=O)c1cc(Nc2nc(-c3ccc4c(c3)N(C3CC(N5CC[C@H](C(F)F)C5)C3)C(=O)C4(C)C)cc3ncn(C(C)C)c23)ccc1C (stereo partly shown) [Example 104A, 5-((6-(1-((1s,3s)-3-(3-(difluoromethyl)pyrrolidin-1-yl)cyclobutyl)-3,3-dimethyl-2-oxoindolin-6-yl)-3-isopropyl-3H-imidazo[4,5-c]pyridin-4-yl)amino)-N,2-dimethylbenzamide]
18 | 0.06 nM | CNC(=O)c1cc(Nc2nc(-c3ccc4c(c3)N([C@H]3C[C@@H](N5CCCCC5)C3)C(=O)C43CCN(C(=O)C45CC(F)(C4)C5)CC3)cc3ncn(C4CC4)c23)ccc1C [Example 154]
19 | 0.1 nM | CNC(=O)c1cc(Nc2nc(-c3ccc4c(c3)N([C@H]3C[C@@H](N5CCCCC5)C3)C(=O)C43CCN(C(=O)C4(C)CC4)CC3)cc3ncn(C4CC4)c23)ccc1C [Example 150]
20 | 0.2 nM | CNC(=O)c1cc(Nc2nc(-c3ccc4c(c3)N([C@H]3C[C@@H](N5CCCCC5)C3)C(=O)C43CCN(C(=O)[C@@H](C)O)CC3)cc3ncn(C(C)C)c23)ccc1C [Example 147]
21 | 0.3 nM | CNC(=O)c1cc(Nc2nc(-c3ccc4c(c3)N([C@H]3C[C@@H](NC(C)C)C3)C(=O)C4(C)C)cc3ncn(C(C)C)c23)c(F)cc1C [Example 14]
22 | 0.2 nM | CNC(=O)c1cc(Nc2nc(-c3ccc4c(c3)N([C@H]3C[C@@H](N5CCCCC5)C3)C(=O)C4(C)C)cc3ncn(C4CC4)c23)ccc1C [Example 79]
